From patent publication US9259491B2, “Class of diazepine derivative chelating agents and complexes with paramagnetic metals thereof as MRI contrast agents” (BRACCO IMAGING S.P.A., priority 2012, dated 2016)

Experiments:
[1] = Millimolar relaxivity r1p from T1 measurements in water, HSA 4% and human plasma (0.47T/20 MHz, 25° C.); type: physicochemical
Procedure: (§1) For all the compounds, longitudinal relaxation times (T1) at 20 MHz and at 25° C. on a mq20 Minispec instrument (Bruker Biospin, Germany) were measured in water, human serum albumin at physiological concentration and human plasma. Millimolar relaxivity r1p was thus determined from T1 measurements using the following equation: R^i1obs=1/T^i,J1obs=r^i,j1p·[Gd^3+]+1/T^j1 wherein R^i1obs is the observed relaxation […] of the selected contrast agent, T1obs is the observed longitudinal relaxation time of the solution and the indexes i and j relate to the contrast agent and to the medium respectively.

[2] = Stability at 37° C. of diazepine complexes determined through r1p measurement in different media; type: physicochemical; settings: 0.47T, 25° C.
Procedure: as §1
In its turn, this means that the present amphiphilic complexes can be administered and detected during MRI experiments allowing a clear and exhaustive analysis of the image over a suitable frame of time.

Row | Structure (SMILES) | r1p ([1]; HSA 4%) [mM⁻¹ s⁻¹] | r1p ([1]; Human plasma) [mM⁻¹ s⁻¹] | r1p ([1]; Water) [mM⁻¹ s⁻¹] | r1p (stability at 37° C.) ([2]; Water, T0) [mM⁻¹ s⁻¹] | also measured
1 | C[NH2+]C[C@H](O)[C@@H](O)[C@H](O)[C@H](O)CO.C[NH2+]C[C@H](O)[C@@H](O)[C@H](O)[C@H](O)CO.O=C([O-])CN(CCN(CC(=O)[O-])CC(=O)[O-])CCN(CC(=O)[O-])C(COCc1ccccc1)C(=O)[O-].[Gd+3] (stereo not drawn) [Gd-BOPTA, [[4-(carboxy)-5,8,11-tris(carboxymethyl)-1-phenyl-2-oxa-5,8,11-triazatridecan-13-oato(5-)]gadolinate(2-)]dimeglumine, reference compound] | 8.9 | 8.7 | 4.6 |  | 
2 | O=C([O-])CN1CCN(CC(=O)[O-])CCN([C@H](CO)[C@H](O)CO)CCN(CC(=O)[O-])CC1.[Gd+3] [Gd-BT-DO3A, reference compound] | 4.31 | 5.76 | 3.75 |  | 
3 | C[NH2+]C[C@H](O)[C@@H](O)[C@H](O)[C@H](O)CO.O=C([O-])CN1CCN(CC(=O)[O-])CCN(CC(=O)[O-])CCN(CC(=O)[O-])CC1.[Gd+3] [Gd-DOTA, [[1,4,7,10-tetraazacyclododecane-1,4,7,10-tetraacetato(4-)]gadolinate(1-)] meglumine, reference compound] | 4.11 | 4.51 | 3.61 |  | 
4 | CC(O)CN1CCN(CC(=O)[O-])CCN(CC(=O)[O-])CCN(CC(=O)[O-])CC1.[Gd+3] (stereo not drawn) [Gd-HP-DO3A, [10-(2-hydroxyprop-1-yl)-1,4,7,10-tetraazacyclododecane-1,4,7-triacetato(3-)]gadolinium, reference compound] | 3.85 | 4.80 | 3.32 |  | 

More lines, main results first:

Row | r1p ([1]; HSA 4%) [mM⁻¹ s⁻¹] | r1p ([1]; Human plasma) [mM⁻¹ s⁻¹] | r1p ([1]; Water) [mM⁻¹ s⁻¹] | r1p (stability at 37° C.) ([2]; Water, T0) [mM⁻¹ s⁻¹] | Structure (SMILES) | also measured
5 | 32.0 | 32.5 | 16.7 | 16.7 | CCCCCCCCCCCC(=O)OC[C@H](COP(=O)(O)OCCNC(=O)CCCCC1(N(CC(=O)[O-])CC(=O)[O-])CN(CC(=O)[O-])CCN(CC(=O)[O-])C1)OC(=O)CCCCCCCCCCC.[Gd+3].[Na+] [Compound 9b] | r1p (stability at 37° C.) ([2]; Human plasma, 1 h): 30.9 mM⁻¹ s⁻¹; r1p (stability at 37° C.) ([2]; Human plasma, 4 h): 28.3 mM⁻¹ s⁻¹; r1p (stability at 37° C.) ([2]; Human plasma, T0): 32.5 mM⁻¹ s⁻¹; r1p (stability at 37° C.) ([2]; Water, 1 h): 15.9 mM⁻¹ s⁻¹; r1p (stability at 37° C.) ([2]; Water, 4 h): 15.5 mM⁻¹ s⁻¹
6 | 31.5 | 33.7 | 13.0 |  | CCCCCCN(CCCCCC)C(=O)CCCCC1(N(CC(=O)[O-])CC(=O)[O-])CN(CC(=O)[O-])CCN(CC(=O)[O-])C1.[Gd+3].[Na+] [Compound 12b, [[6-[Bis[(carboxy)methyl]amino]-6-[5-(dihexylamino)-5-oxopent-1-yl]-tetrahydro-1H-1,4-diazepine-1,4(5H)-diacetate(4-)]gadolinate(1-)]sodium] | 
7 | 54.2 | 50.2 | 13.3 |  | CCCCCCCCN(CCCCCCCC)C(=O)CCCCC1(N(CC(=O)[O-])CC(=O)[O-])CN(CC(=O)[O-])CCN(CC(=O)[O-])C1.[Gd+3].[Na+] [Compound 12c, [[6-[Bis[(carboxy)methyl]amino]-6-[5-(dioctylamino)-5-oxopent-1-yl]-tetrahydro-1H-1,4-diazepine-1,4(5H)-diacetate(4-)]gadolinate(1-)]sodium] | 
8 | 46.7 | 45.2 | 23.5 | 23.5 | CCCCCCCCCCN(CCCCCCCCCC)C(=O)CCCCC1(N(CC(=O)[O-])CC(=O)[O-])CN(CC(=O)[O-])CCN(CC(=O)[O-])C1.[Gd+3].[Na+] [Compound 12d, [[6-[Bis[(carboxy)methyl]amino]-6-[5-(didecylamino)-5-oxopent-1-yl]-tetrahydro-1H-1,4-diazepine-1,4(5H)-diacetate(4-)]gadolinate(1-)]sodium] | r1p (stability at 37° C.) ([2]; HSA 4%, 5 h): 40.9 mM⁻¹ s⁻¹; r1p (stability at 37° C.) ([2]; HSA 4%, T0): 46.7 mM⁻¹ s⁻¹; r1p (stability at 37° C.) ([2]; Human plasma, 2 h): 39.2 mM⁻¹ s⁻¹; r1p (stability at 37° C.) ([2]; Human plasma, 5 h): 34.7 mM⁻¹ s⁻¹; r1p (stability at 37° C.) ([2]; Human plasma, T0): 45.2 mM⁻¹ s⁻¹; r1p (stability at 37° C.) ([2]; Water, 2 h): 20.4 mM⁻¹ s⁻¹; r1p (stability at 37° C.) ([2]; Water, 5 h): 15.8 mM⁻¹ s⁻¹
9 | 40.4 | 36.2 | 33.4 | 33.4 | CCCCCCCCCCCCN(CCCCCCCCCCCC)C(=O)CCCCC1(N(CC(=O)[O-])CC(=O)[O-])CN(CC(=O)[O-])CCN(CC(=O)[O-])C1.[Gd+3].[Na+] [Compound 12e, [[6-[Bis[(carboxy)methyl]amino]-6-[5-(didodecylamino)-5-oxopent-1-yl]-tetrahydro-1H-1,4-diazepine-1,4(5H)-diacetate(4-)]gadolinate(1-)]sodium] | r1p (stability at 37° C.) ([2]; Human plasma, 2 h): 35.2 mM⁻¹ s⁻¹; r1p (stability at 37° C.) ([2]; Human plasma, 4 h): 32.3 mM⁻¹ s⁻¹; r1p (stability at 37° C.) ([2]; Human plasma, T0): 36.2 mM⁻¹ s⁻¹; r1p (stability at 37° C.) ([2]; Water, 2 h): 31.3 mM⁻¹ s⁻¹; r1p (stability at 37° C.) ([2]; Water, 4 h): 30.4 mM⁻¹ s⁻¹
10 | 45.8 | 41.1 | 23.9 | 23.9 | CCCCCCCCCCN(CCCCCCCCCC)C(=O)C1CCC(C2(N(CC(=O)[O-])CC(=O)[O-])CN(CC(=O)[O-])CCN(CC(=O)[O-])C2)CC1.[Gd+3].[Na+] [Compound 25a, [[6-[Bis(carboxymethyl)amino]-6-[(1R,4R)-4-[(didecylamino)-carbonyl]-cyclohexane-1-yl]tetrahydro-1H-1,4-diazepine-1,4(5H)diacetate(4-)]gadolinate(1-)]sodium] | r1p (stability at 37° C.) ([2]; HSA 4%, 5 h): 40.4 mM⁻¹ s⁻¹; r1p (stability at 37° C.) ([2]; HSA 4%, T0): 45.8 mM⁻¹ s⁻¹; r1p (stability at 37° C.) ([2]; Water, 5 h): 23.4 mM⁻¹ s⁻¹
11 | 41.0 | 39.1 | 14.6 |  | CCCCCCCCN(CCCCCCCC)C(=O)C1CCC(C2(N(CC(=O)[O-])CC(=O)[O-])CN(CC(=O)[O-])CCN(CC(=O)[O-])C2)CC1.[Gd+3].[Na+] [Compound 25b, [6-[Bis(carboxymethyl)amino]-6-[(1R,4R)-4-[(dioctylamino)-carbonyl]-cyclohexane-1-yl]tetrahydro-1H-1,4-diazepine-1,4(5H)diacetate(4-)]gadolinate(1-)]sodium] | 
12 | 40.2 | 43.0 | 14.7 |  | CCCCCCCCCC(=O)OC[C@H](COP(=O)([O-])OCCNC(=O)C1CCC(C2(N(CC(=O)[O-])CC(=O)[O-])CN(CC(=O)[O-])CCN(CC(=O)[O-])C2)CC1)OC(=O)CCCCCCCCC.[Gd+3].[Na+].[Na+] (stereo partly drawn) [Compound 25c, [6-[-[Bis(carboxymethyl)amino]-6-[(1R,4R)-4-[[[(7R)-4-hydroxy-4-oxido-10-oxo-7-[(1-oxodecyl)oxy]-3,5,9-trioxa-4-phosphanonadec-1-yl]amino]-carbonyl]-cyclohexane-1-yl]tetrahydro-1H-1,4-diazepine-1,4(5H)-diacetate(5)]gadolinate(2-)]disodium] | 
